From PMC8170132, “Kinetics of Abacavir-Induced Remodelling of the Major Histocompatibility Complex Class I Peptide Repertoire” (Frontiers in Immunology, 2021)

Tests used:
HLA-B*57:01 [1] = biological target: T1, HLA-B*57:01 (Homo sapiens, UniProt P01889, D201E/D98Y/E176V/E187L/E204Q/E69M/E70A/G107R/I90N/K202T/L105A/L119I/N104I/N87E/Q89R/Q94S/R106L/R155S/R180L/R86G/S101N/S121V/S35A/S48A/T118I/V36M/Y140S/Y91M); experiment: LC-MRM-MS quantitation of HLA ligands and co-purified abacavir from abacavir treated C1R.B*57:01 cells; type: cell-based; conditions: for Abacavir dependence: LC-MRM-MS detection, classification of the peptide based on abacavir dependency; for Linear regression slope: linear regression of LC-MRM-MS peptide abundance over abacavir treatment time; for Category of abacavir impact on peptide abundance in the immunopeptidome: C1R.B*57:01, 35 µM abacavir 0-16 h or constant, linear regression of normalised abundance, three replicates
HLA-B*57:01 [2] = biological target: T1, HLA-B*57:01; parameters: method as in Illing et al., Nature 2012; conditions: ref Illing et al., Nature 2012, cited from earlier work; for HLA-B*57:01 previous observation by LC-MS/MS, Abacavir treated: abacavir treated cells; for HLA-B*57:01 previous observation by LC-MS/MS, Untreated: untreated cells

| Sequence | Abacavir dependence (HLA-B*57:01 [1]) | Linear regression slope (HLA-B*57:01 [1]) | HLA-B*57:01 previous observation by LC-MS/MS, Abacavir treated (HLA-B*57:01 [2]) | HLA-B*57:01 previous observation by LC-MS/MS, Untreated (HLA-B*57:01 [2]) | Category of abacavir impact on peptide abundance in the immunopeptidome (HLA-B*57:01 [1]) |
| --- | --- | --- | --- | --- | --- |
| LSSDINVRSW | Minimal | -0.0197 | + (+ (< 5% FDR)) | + (+ (< 5% FDR)) | – |
| LSSPVTKSF | Minimal | 0.0147 | + (+ (< 5% FDR)) | + (+ (< 5% FDR)) | minimally impacted by abacavir |
| LTSELITHI [HLA-B*57:01 ligand derived from MX1] | Dependent | 0.0325 | + (+ (< 5% FDR)) | – | abacavir dependent (abacavir dependent (slope > 0.02, abundance = 0 at t = 0 in at least two of three replicates)) |
| LTTKLTNTNI [non-labelled HLA-B*57:01 ligand] | Dependent | 0.0544 | + (+ (< 5% FDR)) | – | Dependent |
| MTAGVDGHSW | Minimal | -0.0056 | + (+ (< 5% FDR)) | + (+ (< 5% FDR)) | – |
| NTVELRVKI [non-labelled HLA-B*57:01 ligand] | Dependent | 0.0281 | + (+ (< 5% FDR)) | – | Dependent |
| RTLLEDGTFKV | Dependent | 0.0443 | + (+ (< 5% FDR)) | – | – |
| RVAQLEQVYI | Dependent | 0.0208 | + (+ (< 5% FDR)) | – | – |
| RVDPAKGLFYF [non-labelled HLA-B*57:01 ligand] | Inhibited | -0.0245 | + (+ (< 5% FDR)) | + (+ (< 5% FDR)) | Inhibited |
| RVDPDVAQHW | Minimal | 0.0110 | + (+ (< 5% FDR)) | + (+ (< 5% FDR)) | – |
| RVLPPSHRVTW | Minimal | 0.0197 | + (+ (< 5% FDR)) | + (+ (< 5% FDR)) | – |
| SAAYLPRMW | Minimal | -0.0194 | + (+ (< 5% FDR)) | + (+ (< 5% FDR)) | – |
| SSAEVKVTI | Dependent | 0.0466 | + (+ (< 5% FDR)) | – | – |
| STIRLLTSL | Facilitated | 0.0278 | + (+ (< 5% FDR)) | + (+ (< 5% FDR)) | – |
| STLHLVLRL | Dependent | 0.0280 | + (+ (< 5% FDR)) | + (+ (< 5% FDR)) | – |
| TALPLLKQF | Inhibited | -0.0283 | + (+ (< 5% FDR)) | + (+ (< 5% FDR)) | – |
| TFDDIVHSF | – | 0.0142 | + (+ (< 5% FDR)) | + (+ (< 5% FDR)) | – |
| TSLKSRVTI [non-labelled HLA-B*57:01 ligand] | Facilitated | 0.0267 | # (# (> 5% FDR)) | + (+ (< 5% FDR)) | Facilitated |
| TSQAGLFRLW | Minimal | 0.0067 | + (+ (< 5% FDR)) | + (+ (< 5% FDR)) | – |
| TTWKPLNPNSW | Minimal | 0.0009 | + (+ (< 5% FDR)) | + (+ (< 5% FDR)) | – |
| VSAKEKYYVW | Minimal | -0.0125 | + (+ (< 5% FDR)) | + (+ (< 5% FDR)) | – |
| VSVKDIQAHL | Dependent | 0.0241 | + (+ (< 5% FDR)) | – | – |
| VTHSVRIGF | Inhibited | -0.0410 | + (+ (< 5% FDR)) | + (+ (< 5% FDR)) | – |
| VTTDIQVKV | Dependent | 0.0428 | + (+ (< 5% FDR)) | + (+ (< 5% FDR)) | – |
| VTYPAKAKGTFI | Dependent | 0.0340 | + (+ (< 5% FDR)) | – | – |
| YFDPANGKF | – | 0.0159 | + (+ (< 5% FDR)) | + (+ (< 5% FDR)) | – |
| YTDNLVRVW [HLA-B*57:01 ligand derived from RACK1] | Minimal | -0.0088 | + (+ (< 5% FDR)) | + (+ (< 5% FDR)) | minimally impacted by abacavir |
